Assay results as given in patent publication US9750728B2, “Method and pharmaceutical composition for inhibiting PI3K/AKT/mTOR signaling pathway” (TARGETED THERAPEUTICS, LLC, priority 2012, dated 2017).
Entries after “also recorded” stand apart in the source; their conditions may differ.

Legend:
Assay type in all cases: cell-based
PI3K [1] = test: PI3K kinase assay in anti-IRS-1 immunoprecipitates; details: Panc-1, 24 hours; ZPP 200 μM, Y29794 0.5 μM or rapamycin alone
Protocol: PI3K kinase assay kit (Calbiochem, Bilerica, Mass., USA) was used to measure the IRS-1-associated or p85-associated PI3K kinase activity in cells. The indicated cells were treated with different conditions for 24 hours. The cells were rinsed three times with pre-cooled PBS, lysed in 500 μl of lysis buffer (150 mmol/L Nacl, 1% Triton-x-100, 50 mmol/1 Tris (pH8.0, 1 mmol/L PMSF, 1 μg/L aprotinin, 1 μg/Lleupeptin, 1 μg/L peptain). Cell lysates (500 μg, in triplicate) of were used for anti-IRS-1 or anti-p85 immunoprecipitation. The immunoprecipitates were resuspended in 200 μl assay buffer and mixed with the fluorescence-labeled PI3K substrate BODIPY-TMR-phosphatidylinositol (100 μM) and ATP (37° C.) for 1 hour. The fluorescence intensity was measured with a fluorometer (excitation wavelength of 540 nm, emission wavelength […]). The difference between fluorescence intensity between control immunoprecipitates (no lysates) and lysate immunoprecipitates was used to indicate PI3K kinase activity. IR-1 anti-rabbit antibody and rabbit anti-PI3K p85 antibody were purchased from Millipore Corporation (Billerica, Mass., USA). Panc-1 anti-p85 immunoprecipitates were used for PI3K kinase assay (FIG. 12) and immunoblot analysis (FIG. 12). Rapamycin treatment in control cells increased PI3K kinase activity (P<0.01). […]

Panc-1 = test: Colony formation assay (clonogenic assay); details: Panc-1, rapamycin alone 1 nM and 10 nM
Protocol: 1.2. Colony formation assay (clonogenic assay) was used to analyze the effect of ZPP or Y29794 on cancer cell survival. 10^3 Panc-1 cells were plated in 100 mm petri dish in triplicate fed with 10 ml of DMEM containing 10% FBS. The cells were then treated by ZPP for 7 days and cultured for additional three weeks. Cells were then rinsed three times with PBS, fixed with 100% ethanol for 15 min, and stained with 2% crystal violet ethanol solution. The stained colonies were counted. All the results are statistically analyzed by one way ANOVA and two tailed t-test.

[2] = system: AKT phosphorylation (S473); test: Immunoblot analysis of AKT phosphorylation in cancer cells; details: 24 hours
Protocol: (§1) 2.2 Immunoblot analysis of gene silencing of PRCP or PREP in cancer cells. Mouse anti-PRCP antibody was purchased from Abcam (Cambridge, Mass., USA). Goat anti-PREP antibody was purchased from R&D Systems (Minneapolis, Minn., USA). Mouse anti-R-actin antibody antibodies was from Santa Cruz Biotechnology (Santa Cruz, Calif., USA). Panc-1 pancreatic cancer cells and MCF7 breast cancer cells were cultured to 80% confluence, cells were rinsed three times with pre-cooled PBS, 500 μl of lysis buffer (150 mmol/L Nacl, 1% Triton-x-100, 50 mmol/l TrispH8.0, 1 mmol/L PMSF, 1 ug/L aprotinin, 1 ug/L leupeptin, 1 ug/L peptain) was added to the cells. Cells were scraped and transferred to a centrifuge tube with a pipette. The lysates were spun in a microcentrifuge at maximal speed for 10 minutes at 4° C. to get rid of the insoluble fraction. Protein concentration was determined by Bradford assay. For immunoprecipitation: 2-5 ug protein-specific antibodies were added to 250-500 ug of lysates in a tube and incubated on an ordital shaker 4° C. for 2-4 hours with moderate shaking, then 20 ul Protein G beads (Santa Cruz Biotechnology (Santa Cruz, Calif., USA.) were added and the mixture was incubated with moderate shaking for another hour. After washing the beads in lysis buffer five times, the immunoprecipitates were boiled in 2× Laemmli sample buffer (50 mmoL/L Tris-HCL (pH8.0), 100 mmoL/L DTT, 2% SDS, 0.1% bromophenol blue, 10% glycerol) for five minutes. The proteins were separated by conventional SDS-polyacrylamide gel electrophoresis (SDS-PAGE) electrophoresis and transferred to Amersham Hybond-P PVDF membrane (GE Company, Pittsburgh, Pa., USA). For immunoblot, the membrane was blocked in 2% BSA in TBST buffer (Tris 1.21 g+NaCl 5.84 g+800 ml H2O adjusted to pH 8.0 with HCl) for one hour and then incubated with primary antibodies in TBST at room temperature (22-25° C.) for 2 hours. After washing three times with TBST, the membrane was incubated with HRP-conjugated secondary antibodies for 0.5 hours at room temperature. After washing the membrane five times with TBST (5 minutes/each), the membrane was incubated with ECL chromogenic reagent (GE Company, Pittsburgh, Pa., USA) for 1-5 minutes. The blots were exposed to films in darkroom for 1-5 minute. The films were developed in an automatic X-OMAT Developer (KODAK, Rochester, N.Y., USA). […] PREP gene silencing (PREP KD) or PRCP gene silencing (PRCP KD) or gene silencing both PRCP and PREP (DKD) in MCF7 cells reduces expression of PREP and/or PRCP proteins compared with control cells (control) (FIGS. 6B & 6C).
3.1 Reduction in AKT phosphorylation is examined by immunoblot using rabbit anti-phospho-AKT […] and rabbit anti-pan AKT antibodies purchased from Cell Signaling Technology (Danvers, Mass., USA) in the cells with gene silencing of PRCP and/or PREP or treated with ZPP or Y29794. Reduction in PRCP and/or PREP is shown by Western blot and quantitative PCR described in 2.2.

IRS-1 = test: Immunoblot analysis of IRS-1 (protein, phosphorylation, half-life, p85 coimmunoprecipitation)
Protocol: as §1
3.2 AKT phosphorylation was examined by immunoblot as described in 3.1. IRS-1 expression was analyzed by immunoblot using anti-IRS-1 antibodies purchased from Santa Cruz Biotechnology (Santa Cruz, Calif., USA). Reduction in PRCP and/or PREP by gene silencing is shown by Western blot and quantitative PCR described in 2.2.
3.4 ZPP or Y29794 inhibits IRS-1 tyrosine phosphorylation and p85 PI3K subunit interaction with IRS-1 and PI3K kinase activity. Panc-1 cells were treated with ZPP (200 μM) or Y29794 (0.5 μM) for 24 hours. Lysates were immunoprecipitated with anti-IRS-1 antibodies and the anti-IRS-1 immunoprecipitates were used for PI3K kinase assay and anti-IRS-1 phospho-tyrosine and anti-p85 immunoblot analysis (FIG. 13). ZPP or Y29794 decreased IRS-1-associated PI3K activity (FIG. 13, upper) and tyrosine phosphorylation of IRS-1 and p85 (FIG. 13, lower).
As described in Example 2.2 and above, the cells with PRCP and PREP gene silencing were used for analysis of PRCP and PREP gene silencing and inhibition of serine phosphorylation and degradation of IRS-1 and its effects on response to rapamycin. […] Compared to control cells, DKD cells show […] serine phosphorylation (S307 and S636/639) of IRS-1 alongside with decreased tyrosine phosphorylation of IRS-1 (FIG. 18B). […]

[3] = system: mTOR (S2448) phosphorylation; test: Immunoblot analysis of mTOR phosphorylation; details: Panc-1; rapamycin, or Y29794 1 μM (FIG. 19D)
Protocol: Mouse anti-PRCP antibody was purchased from Abcam (Cambridge, Mass., USA). Goat anti-PREP antibody was purchased from R&D Systems (Minneapolis, Minn., USA). Mouse anti-R-actin antibody antibodies was from Santa Cruz Biotechnology (Santa Cruz, Calif., USA). Panc-1 pancreatic cancer cells and MCF7 breast cancer cells were cultured to 80% confluence, cells were rinsed three times with pre-cooled PBS, 500 μl of lysis buffer (150 mmol/L Nacl, 1% Triton-x-100, 50 mmol/l TrispH8.0, 1 mmol/L PMSF, 1 ug/L aprotinin, 1 ug/L leupeptin, 1 ug/L peptain) was added to the cells. Cells were scraped and transferred to a centrifuge tube with a pipette. The lysates were spun in a microcentrifuge at maximal speed for 10 minutes at 4° C. to get rid of the insoluble fraction. Protein concentration was determined by Bradford assay. For immunoprecipitation: 2-5 ug protein-specific antibodies were added to 250-500 ug of lysates in a tube and incubated on an ordital shaker 4° C. for 2-4 hours with moderate shaking, then 20 ul Protein G beads (Santa Cruz Biotechnology (Santa Cruz, Calif., USA.) were added and the mixture was incubated with moderate shaking for another hour. After washing the beads in lysis buffer five times, the immunoprecipitates were boiled in 2× Laemmli sample buffer (50 mmoL/L Tris-HCL (pH8.0), 100 mmoL/L DTT, 2% SDS, 0.1% bromophenol blue, 10% glycerol) for five minutes. The proteins were separated by conventional SDS-polyacrylamide gel electrophoresis (SDS-PAGE) electrophoresis and transferred to Amersham Hybond-P PVDF membrane (GE Company, Pittsburgh, Pa., USA). For immunoblot, the membrane was blocked in 2% BSA in TBST buffer (Tris 1.21 g+NaCl 5.84 g+800 ml H2O adjusted to pH 8.0 with HCl) for one hour and then incubated with primary antibodies in TBST at room temperature (22-25° C.) for 2 hours. After washing three times with TBST, the membrane was incubated with HRP-conjugated secondary antibodies for 0.5 hours at room temperature. […]

[4] = system: S6K (T389) phosphorylation; test: Immunoblot analysis of S6K phosphorylation; details: Panc-1 cells incl. PRCP and PREP silenced cells, rapamycin (FIG. 18D)
Protocol: 2.2 Immunoblot analysis of gene silencing of PRCP or PREP in cancer cells. Mouse anti-PRCP antibody was purchased from Abcam (Cambridge, Mass., USA). Goat anti-PREP antibody was purchased from R&D Systems (Minneapolis, Minn., USA). Mouse anti-R-actin antibody antibodies was from Santa Cruz Biotechnology (Santa Cruz, Calif., USA). Panc-1 pancreatic cancer cells and MCF7 breast cancer cells were cultured to 80% confluence, cells were rinsed three times with pre-cooled PBS, 500 μl of lysis buffer (150 mmol/L Nacl, 1% Triton-x-100, 50 mmol/l TrispH8.0, 1 mmol/L PMSF, 1 ug/L aprotinin, 1 ug/L leupeptin, 1 ug/L peptain) was added to the cells. Cells were scraped and transferred to a centrifuge tube with a pipette. The lysates were spun in a microcentrifuge at maximal speed for 10 minutes at 4° C. to get rid of the insoluble fraction. Protein concentration was determined by Bradford assay. […]

PI3K [5] = test: PI3K kinase assay in anti-p85 immunoprecipitates; details: Panc-1, 24 hours; ZPP 200 μM, Y29794 0.5 μM or rapamycin alone, vs vehicle
Protocol: PI3K kinase assay kit (Calbiochem, Bilerica, Mass., USA) was used to measure the IRS-1-associated or p85-associated PI3K kinase activity in cells. The indicated cells were treated with different conditions for 24 hours. The cells were rinsed three times with pre-cooled PBS, lysed in 500 μl of lysis buffer (150 mmol/L Nacl, 1% Triton-x-100, 50 mmol/1 Tris (pH8.0, 1 mmol/L PMSF, 1 μg/L aprotinin, 1 μg/Lleupeptin, 1 μg/L peptain). Cell lysates (500 μg, in triplicate) of were used for anti-IRS-1 or anti-p85 immunoprecipitation. The immunoprecipitates were resuspended in 200 μl assay buffer and mixed with the fluorescence-labeled PI3K substrate BODIPY-TMR-phosphatidylinositol (100 μM) and ATP (37° C.) for 1 hour. The fluorescence intensity was measured with a fluorometer (excitation wavelength of 540 nm, emission wavelength […]). The difference between fluorescence intensity between control immunoprecipitates (no lysates) and lysate immunoprecipitates was used to indicate PI3K kinase activity. IR-1 anti-rabbit antibody and rabbit anti-PI3K p85 antibody were purchased from Millipore Corporation (Billerica, Mass., USA). Panc-1 anti-p85 immunoprecipitates were used for PI3K kinase assay (FIG. 12) and immunoblot analysis (FIG. 12). Rapamycin treatment in control cells increased PI3K kinase activity (P<0.01).

For `CO[C@H]1C[C@@H]2CC[C@@H](C)[C@@](O)(O2)C(=O)C(=O)N2CCCC[C@H]2C(=O)O[C@H]([C@H](C)C[C@@H]2CC[C@@H](O)[C@H](OC)C2)CC(=O)[C@H](C)/C=C(\C)[C@@H](O)[C@@H](OC)C(=O)[C@H](C)C[C@H](C)/C=C/C=C/C=C/1C` [rapamycin, (3S,6R,7E,9R,10R,12R,14S,15E,17E,19E,21S,23S,26R,27R,34aS)-9,10,12,13,14,21,22,23,24,25,26,27,32,33,34,34a-hexadecahydro-9,27-dihydroxy-3-[(1R)-2-[(1S,3R,4R)-4-hydroxy-3-methoxycyclohexyl]-1-methylethyl]-10,21-dimethoxy-6,8,12,14,20,26-hexamethyl-23,27-epoxy-3H-pyrido[2,1-c][1,4]oxaazacyclohentriacontine-1,5,11,28,29 (4H,6H,31H)-pentone], the “IRS-1-associated PI3K activity” value (PI3K [1]) was “increases; also recorded: significantly elevated”, the “cell survival (colony formation)” value (Panc-1) was “did not affect” and the AKT phosphorylation ([2]; MCF7, rapamycin 10 nM) was “increased; also recorded: induced an increase”. For the same compound, the AKT phosphorylation ([2]; Panc-1, rapamycin 10 nM) was “significantly increased; also recorded: induced an increase”, the IRS-1 protein (IRS-1; MCF7, rapamycin 10 nM, 24 hours) was “increased; also recorded: induced an increase” and the “tyrosine phosphorylation of IRS-1” value (IRS-1; Panc-1, rapamycin 10 nM (FIG. 10A legend)) was “increased”. For the same compound, the IRS-1 protein (IRS-1; Panc-1, rapamycin 10 nM, 24 hours) was “significantly increased; also recorded: induced an increase”, the “serine phosphorylation (S307 and S636/639) of IRS-1” value (IRS-1; control Panc-1 cells, rapamycin (FIG. 18D)) was “inhibits; also recorded: inhibiting” and the IRS-1 protein (IRS-1; control Panc-1 cells, rapamycin, concentration not given) was “increases; also recorded: induced increase”. The “mTOR (S2448) phosphorylation” value [3] was “inhibits; also recorded: completely inhibited”, the “phosphorylation of S6K (T389)” value [4] was “completely inhibited” and the “PI3K kinase activity (p85-associated)” value (PI3K [5]) was “increases; also recorded: significantly elevated”.
